Data taken from ChEMBL document CHEMBL4811310, “Antimalarial activity of 2,6-dibenzylidenecyclohexanone derivatives” (Bioorg Med Chem Lett, 2021).
≈ marks a conversion by molar mass, not a printed value.

Experiments:
[1] = Therapeutic index, ratio of EC50 for cytotoxicity against human BJ cells to EC50 for antimalarial activity against CQ-sensitive Plasmodium falciparum 3D7 MRA-102 infected in human O-positive erythrocytes; type: toxicity, cell-based; conditions: read-out: Ratio EC50
Plasmodium falciparum [2] = experiment: Antimalarial activity against CQ-sensitive Plasmodium falciparum 3D7 MRA-102 infected in human O-positive erythrocytes assessed as inhibition of parasite growth; type: functional, organism-based; conditions: 3D7 MRA-102, Erythrocyte
[3] = Solubility in PBS buffer at pH 7.4; type: physicochemical
BJ = experiment: Cytotoxicity against human BJ cells assessed as reduction in cell viability; type: cell-based
Plasmodium falciparum [4] = experiment: Antimalarial activity against Plasmodium falciparum V1S infected in human erythrocytes assessed as inhibition of parasite growth; type: functional, organism-based; conditions: Erythrocyte
Plasmodium falciparum [5] = experiment: Antimalarial activity against Plasmodium falciparum K1 infected in human erythrocytes assessed as inhibition of parasite growth; type: functional, organism-based; conditions: K1, Erythrocyte
Plasmodium falciparum [6] = experiment: Antimalarial activity against CQ-sensitive Plasmodium falciparum 3D7 MRA-102 infected in human O-positive erythrocytes assessed as inhibition of parasite growth at 16 uM; type: functional; conditions: 3D7 MRA-102, Erythrocyte
[7] = Cytotoxicity against human BJ cells assessed as reduction in cell viability at 58 uM; type: cell-based; conditions: read-out: INH

solubility [3]	SMILES	selectivity ratio [1]	EC50 (Plasmodium falciparum [2])	EC50 (BJ)	EC50 (Plasmodium falciparum [4])	EC50 (Plasmodium falciparum [5])	inhibition at 16 µM (Plasmodium falciparum [6])	cytotoxicity at 58 µM [7]
1.2 µM (≈ 0.514 µg/mL)	O=C1/C(=C/c2cccc(C(F)(F)F)c2)CSC/C1=C\c1cccc(C(F)(F)F)c1	28	0.82 µM	23.2 µM				
1.1 µM (≈ 0.535 µg/mL)	O=C1/C(=C/c2cccc(C(F)(F)F)c2)CC(c2ccccc2)C/C1=C\c1cccc(C(F)(F)F)c1 (configuration not stated)	3	0.491 µM	1.53 µM				
< 1 µM	N#CC1(c2ccccc2)C/C(=C\c2cccc(F)c2)C(=O)/C(=C/c2cccc(F)c2)C1 (configuration not stated)	2	1.13 µM	2.27 µM				
< 1 µM	CC(C)(C)C1C/C(=C\c2cccc(C(F)(F)F)c2)C(=O)/C(=C/c2cccc(C(F)(F)F)c2)C1 (configuration not stated)	> 37	0.641 µM	> 24 µM				
< 1 µM	N#CC1(c2ccccc2)C/C(=C\c2ccccc2)C(=O)/C(=C/c2ccccc2)C1 (configuration not stated)	4	1.36 µM	5.85 µM				
	N#CC1(c2ccccc2)C/C(=C\c2cccc(C(F)(F)F)c2)C(=O)/C(=C/c2cccc(C(F)(F)F)c2)C1 (configuration not stated)	2	0.331 µM	0.57 µM	0.25 µM	0.53 µM		
< 1 µM	CC1C/C(=C\c2cccc(C(F)(F)F)c2)C(=O)/C(=C/c2cccc(C(F)(F)F)c2)C1 (configuration not stated)	18	1.1 µM	20.1 µM				
< 1 µM	O=C1/C(=C/c2cccc(C(F)(F)F)c2)CS(=O)(=O)C/C1=C\c1cccc(C(F)(F)F)c1	< 1	0.393 µM	0.12 µM				
1.4 µM (≈ 0.577 µg/mL)	O=C1/C(=C/c2cccc(C(F)(F)F)c2)COC/C1=C\c1cccc(C(F)(F)F)c1	20	1.16 µM	23.7 µM				
< 1 µM	N#CC1(c2ccccc2)C/C(=C\c2ccc(C(F)(F)F)cc2)C(=O)/C(=C/c2ccc(C(F)(F)F)cc2)C1 (configuration not stated)	2	0.207 µM	0.406 µM				
2.3 µM (≈ 1.19 µg/mL)	N#CC1(c2ccccc2)CC(Cc2cccc(C(F)(F)F)c2)C(=O)C(Cc2cccc(C(F)(F)F)c2)C1 (configuration not stated)	> 23	1.03 µM	> 24 µM				
< 1 µM	O=C1/C(=C/c2cccc(C(F)(F)F)c2)CCC/C1=C\c1cccc(C(F)(F)F)c1	10	2.29 µM	23.5 µM				
2.5 µM (≈ 1.28 µg/mL)	N#CC1(c2ccccc2)C/C(=C\c2cccc(C(F)(F)F)c2)C(O)/C(=C/c2cccc(C(F)(F)F)c2)C1 (configuration not stated)	> 7	3.21 µM	> 24 µM				
	O[C@@H](c1cc(C(F)(F)F)nc2c(C(F)(F)F)cccc12)[C@H]1CCCCN1 [(S,R)-MEFLOQUINE]						100%	
> 100 µM	NC(=O)N1c2ccccc2C=Cc2ccccc21 [CARBAMAZEPINE]							
	CC(=O)[C@]1(O)Cc2c(O)c3c(c(O)c2[C@@H](O[C@H]2C[C@H](N)[C@H](O)[C@H](C)O2)C1)C(=O)c1ccccc1C3=O [IDARUBICIN]							100%

SMILES	solubility [3]	selectivity ratio [1]	EC50 (Plasmodium falciparum [2])	EC50 (BJ)	EC50 (Plasmodium falciparum [4])	EC50 (Plasmodium falciparum [5])	inhibition at 16 µM (Plasmodium falciparum [6])	cytotoxicity at 58 µM [7]
CCCSc1ccc2nc(NC(=O)OC)[nH]c2c1 [ALBENDAZOLE]	< 1 µM							
